# Source: patent US10781224B2, “Bis(oxymethyl)phosphinic acid and biogenic metal salts thereof as regulators of plant growth and development” (priority 2016, dated 2020)
# Test system: winter wheat (Vershin variety)
# Test: Winter wheat seed treatment with BHMPA salts: germinating power (length and mass of roots and sprouts)
# Assay type: in vivo
# Description: Experimental versions—soaking seeds in BHMPA solutions and solutions of BHMPA Ca, Mg, Na, Co, Mn, Cu, and Zn salts at 1·10^−6-1·10^−12% concentrations (doses). The studies were conducted in laboratory in Petri dishes; seed bed—two layers of filter paper. 50 seeds soaked in water (control) and in the solutions of the tested compounds (experimental) were placed into each dish. Wheat, corn, and rice seeds were exposed for one hour.
# Seed germination energy and rate were calculated in percent as an arithmetic mean of the four experimental results (germination energy on the 4th day, wheat germination on the 8th day, rice and corn germination—on the 7th day). Germination was determined based on the germinating power indicators (length of the roots and sprouts and their wet and dry mass per 100 shoots).
# The effect of pre-sowing seed treatment with the claimed BHMPA salts of biogenic metals was studied on winter wheat (Vershin variety), corn (Krasnodar 385 MV variety), and rice (Diamant variety).
# The above data describe the seed viability only at the initial stage of germination, while the germination ability at the later stage of germination is defined by the initial germinating power. The method for the determination of the germinating power comprises measuring the height of the sprouts and primary roots, as well as the biomass and the dry mass thereof per 100 seedlings. [M. A. Kartuzova. Initial Germinating Power as Method of Biological Assessment of Seed Quality. Selection and Seed Farming, #2, 1953].
# [1] = comparative study, 1·10^−11% solution
compound,measurement,setting,value
"O=P([O-])(CO)CO.O=P([O-])(CO)CO.[Mg+2] [Mg-salt, Magnesium BHMPA Salt]","Length, root",1·10^−6% solution,9.2 cm
same,"Length, root, + % to control",1·10^−6% solution,−1%
same,"Length, sprout",1·10^−6% solution,7.1 cm
same,"Length, sprout, + % to control",1·10^−6% solution,−1%
same,"Mass, dry, root",1·10^−6% solution,0.57 g/100 plantlings
same,"Mass, dry, root, + % to control",1·10^−6% solution,−2%
same,"Mass, dry, sprout",1·10^−6% solution,0.65 g/100 plantlings
same,"Mass, dry, sprout, + % to control",1·10^−6% solution,−15%
same,"Mass, wet, root",1·10^−6% solution,2.55 g/100 plantlings
same,"Mass, wet, root, + % to control",1·10^−6% solution,−1%
same,"Mass, wet, sprout",1·10^−6% solution,5.45 g/100 plantlings
same,"Mass, wet, sprout, + % to control",1·10^−6% solution,−2.5%
same,germinating power results vs control,1·10^−6% solution,lower than those of the control
same,"Length, root",1·10^−7% solution,10.0 cm
same,"Length, root, + % to control",1·10^−7% solution,7.5%
same,"Length, sprout",1·10^−7% solution,7.2 cm
same,"Length, sprout, + % to control",1·10^−7% solution,0%
same,"Mass, dry, root",1·10^−7% solution,0.61 g/100 plantlings
same,"Mass, dry, root, + % to control",1·10^−7% solution,5%
same,"Mass, dry, sprout",1·10^−7% solution,0.79 g/100 plantlings
same,"Mass, dry, sprout, + % to control",1·10^−7% solution,2.6%
same,"Mass, wet, root",1·10^−7% solution,2.68 g/100 plantlings
same,"Mass, wet, root, + % to control",1·10^−7% solution,3%
same,"Mass, wet, sprout",1·10^−7% solution,5.63 g/100 plantlings
same,"Mass, wet, sprout, + % to control",1·10^−7% solution,0.7%
same,"Length, root",1·10^−8% solution,10.0 cm
same,"Length, root, + % to control",1·10^−8% solution,7.5%
same,"Length, sprout",1·10^−8% solution,7.4 cm
same,"Length, sprout, + % to control",1·10^−8% solution,3%
same,"Mass, dry, root",1·10^−8% solution,0.62 g/100 plantlings
same,"Mass, dry, root, + % to control",1·10^−8% solution,7%
same,"Mass, dry, sprout",1·10^−8% solution,0.80 g/100 plantlings
same,"Mass, dry, sprout, + % to control",1·10^−8% solution,4%
same,"Mass, wet, root",1·10^−8% solution,2.97 g/100 plantlings
same,"Mass, wet, root, + % to control",1·10^−8% solution,15.5%
same,"Mass, wet, sprout",1·10^−8% solution,5.79 g/100 plantlings
same,"Mass, wet, sprout, + % to control",1·10^−8% solution,3.6%
same,"Length, root",1·10^−9% solution,10.9 cm
same,"Length, root, + % to control",1·10^−9% solution,17%
same,"Length, sprout",1·10^−9% solution,7.5 cm
same,"Length, sprout, + % to control",1·10^−9% solution,4%
same,"Mass, dry, root",1·10^−9% solution,0.63 g/100 plantlings
same,"Mass, dry, root, + % to control",1·10^−9% solution,8.6%
same,"Mass, dry, sprout",1·10^−9% solution,0.81 g/100 plantlings
same,"Mass, dry, sprout, + % to control",1·10^−9% solution,5%
same,"Mass, wet, root",1·10^−9% solution,2.98 g/100 plantlings
same,"Mass, wet, root, + % to control",1·10^−9% solution,16%
same,"Mass, wet, sprout",1·10^−9% solution,5.81 g/100 plantlings
same,"Mass, wet, sprout, + % to control",1·10^−9% solution,4%
same,"Length, root",1·10^−10% solution,11.3 cm
same,"Length, root, + % to control",1·10^−10% solution,21.5%
same,"Length, sprout",1·10^−10% solution,7.5 cm
same,"Length, sprout, + % to control",1·10^−10% solution,4%
same,"Mass, dry, root",1·10^−10% solution,0.66 g/100 plantlings
same,"Mass, dry, root, + % to control",1·10^−10% solution,24%
same,"Mass, dry, sprout",1·10^−10% solution,0.83 g/100 plantlings
same,"Mass, dry, sprout, + % to control",1·10^−10% solution,8%
same,"Mass, wet, root",1·10^−10% solution,2.94 g/100 plantlings
same,"Mass, wet, root, + % to control",1·10^−10% solution,14%
same,"Mass, wet, sprout",1·10^−10% solution,5.84 g/100 plantlings
same,"Mass, wet, sprout, + % to control",1·10^−10% solution,4.5%
same,"Length, root",1·10^−11% solution,12.2 cm
same,"Length, root, + % to control",1·10^−11% solution,31%
same,"Length, sprout",1·10^−11% solution,7.7 cm
same,"Length, sprout, + % to control",1·10^−11% solution,7%
same,"Mass, dry, root",1·10^−11% solution,0.74 g/100 plantlings
same,"Mass, dry, root, + % to control",1·10^−11% solution,27.5%
same,"Mass, dry, sprout",1·10^−11% solution,1.07 g/100 plantlings
same,"Mass, dry, sprout, + % to control",1·10^−11% solution,39%
same,"Mass, wet, root",1·10^−11% solution,3.41 g/100 plantlings
same,"Mass, wet, root, + % to control",1·10^−11% solution,33%
same,"Mass, wet, sprout",1·10^−11% solution,5.94 g/100 plantlings
same,"Mass, wet, sprout, + % to control",1·10^−11% solution,6%
same,"Length, root",1·10^−12% solution,12.1 cm
same,"Length, root, + % to control",1·10^−12% solution,30%
same,"Length, sprout",1·10^−12% solution,7.6 cm
same,"Length, sprout, + % to control",1·10^−12% solution,5.5%
same,"Mass, dry, root",1·10^−12% solution,0.69 g/100 plantlings
same,"Mass, dry, root, + % to control",1·10^−12% solution,19%
same,"Mass, dry, sprout",1·10^−12% solution,0.84 g/100 plantlings
same,"Mass, dry, sprout, + % to control",1·10^−12% solution,9%
same,"Mass, wet, root",1·10^−12% solution,3.11 g/100 plantlings
same,"Mass, wet, root, + % to control",1·10^−12% solution,21%
same,"Mass, wet, sprout",1·10^−12% solution,5.86 g/100 plantlings
same,"Mass, wet, sprout, + % to control",1·10^−12% solution,5%
same,"Length, root",[1],10.0 cm
same,"Length, root, + % to control",[1],15%
same,"Length, sprout",[1],7.2 cm
same,"Length, sprout, + % to control",[1],16%
same,"Mass, dry, root",[1],0.69 g/100 plantlings
same,"Mass, dry, root, + % to control",[1],11%
same,"Mass, dry, sprout",[1],0.57 g/100 plantlings
same,"Mass, dry, sprout, + % to control",[1],12%
same,"Mass, wet, root",[1],5.76 g/100 plantlings
same,"Mass, wet, root, + % to control",[1],59%
same,"Mass, wet, sprout",[1],5.04 g/100 plantlings
same,"Mass, wet, sprout, + % to control",[1],27%
